Results reported in paper PMC3663535, “Substrate Selectivity of the Acid-activated Glutamate/γ-Aminobutyric acid (GABA) Antiporter GadC from Escherichia coli” (The Journal of Biological Chemistry, 2013).

Molecular target: T1, WT GadC (Escherichia coli, UniProt P63235)
T1 construct: full-length wild type; hexahistidine tag proteolytically removed; recombinant, reconstituted in E. coli polar lipid proteoliposomes
Test: proteoliposome Gln/GABA exchange with membrane potential
Format: biochemical
Details: 5 mM internal GABA, efflux followed through influx of 50 μM external [3H]Gln; pH 5.5

T1 sequence (P63235 whole entry): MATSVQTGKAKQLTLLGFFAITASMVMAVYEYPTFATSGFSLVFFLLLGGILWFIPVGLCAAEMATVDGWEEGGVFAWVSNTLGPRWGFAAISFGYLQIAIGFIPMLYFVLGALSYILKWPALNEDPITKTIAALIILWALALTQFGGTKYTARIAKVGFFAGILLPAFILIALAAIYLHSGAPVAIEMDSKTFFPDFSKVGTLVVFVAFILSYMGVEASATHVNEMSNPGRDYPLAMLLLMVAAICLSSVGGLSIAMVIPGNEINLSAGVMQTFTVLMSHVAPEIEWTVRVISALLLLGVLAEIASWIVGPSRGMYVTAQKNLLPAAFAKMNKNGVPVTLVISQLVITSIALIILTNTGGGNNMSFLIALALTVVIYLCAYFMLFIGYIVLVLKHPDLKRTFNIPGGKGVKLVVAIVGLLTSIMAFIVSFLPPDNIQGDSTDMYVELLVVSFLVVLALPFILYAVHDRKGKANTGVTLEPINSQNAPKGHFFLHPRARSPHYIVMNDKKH

NCCCC(=O)O [GABA]
proteoliposome Gln/GABA exchange with membrane potential: confirm our prediction that GABA^+ is the transport substrate for GadC
